Measured values taken from the supplement of paper PMC10307832.

Legend:
Experiment in all cases: relative viability (nuclei count vs DMSO), 5 days (fraction); higher = more cells survive
OSI-027 + Lapatinib = compound: COc1cccc2cc(-c3nc([C@H]4CC[C@H](C(=O)O)CC4)n4ncnc(N)c34)[nH]c12 [OSI-027] + CS(=O)(=O)CCNCc1ccc(-c2ccc3ncnc(Nc4ccc(OCc5cccc(F)c5)c(Cl)c4)c3c2)o1 [Lapatinib] (partner 2 µM)
Outline: (§1)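 Nuclei were stained with Hoechst during a one-step fixation (final 0.05% Triton X-100, 1% formaldehyde, 1 ug/ml Hoechst) carried out 5 days after dosing, then counted on 4× images. The cells, lung cancer lines in 1536-well plates, had been dosed by pin tool the day after seeding with one drug alone or a fixed anchor-drug dose plus five library-drug doses (not always all listed) in √10 steps. Relative viability is the nuclei count in treated wells divided by that in vehicle wells, and each value is the median of duplicate plates.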

Alpelisib + Bortezomib = compound: Cc1nc(NC(=O)N2CCC[C@H]2C(N)=O)sc1-c1ccnc(C(C)(C)C(F)(F)F)c1 [Alpelisib] + CC(C)C[C@H](NC(=O)[C@H](Cc1ccccc1)NC(=O)c1cnccn1)B(O)O [Bortezomib] (partner 0.002 µM)
Outline: as §1

Vemurafenib + Navitoclax = compound: CCCS(=O)(=O)Nc1ccc(F)c(C(=O)c2c[nH]c3ncc(-c4ccc(Cl)cc4)cc23)c1F [Vemurafenib] + CC1(C)CCC(c2ccc(Cl)cc2)=C(CN2CCN(c3ccc(C(=O)NS(=O)(=O)c4ccc(N[C@H](CCN5CCOCC5)CSc5ccccc5)c(S(=O)(=O)C(F)(F)F)c4)cc3)CC2)C1 [Navitoclax] (partner 0.5 µM)
Outline: as §1

Alpelisib + Linsitinib = compound: Cc1nc(NC(=O)N2CCC[C@H]2C(N)=O)sc1-c1ccnc(C(C)(C)C(F)(F)F)c1 [Alpelisib] + C[C@]1(O)C[C@@H](c2nc(-c3ccc4ccc(-c5ccccc5)nc4c3)c3c(N)nccn32)C1 [Linsitinib] (partner 1 µM)
Outline: as §1

Cell Line	relative viability (OSI-027 + Lapatinib; first compound 0.01 µM)	relative viability (OSI-027 + Lapatinib; first compound 0.03162 µM)	relative viability (OSI-027 + Lapatinib; first compound 0.1 µM)	relative viability (OSI-027 + Lapatinib; first compound 0.3162 µM)	relative viability (OSI-027 + Lapatinib; first compound 1 µM)	relative viability (Alpelisib + Bortezomib; first compound 0.04 µM)	relative viability (Alpelisib + Bortezomib; first compound 0.1265 µM)	relative viability (Alpelisib + Bortezomib; first compound 0.4 µM)	relative viability (Alpelisib + Bortezomib; first compound 1.265 µM)	relative viability (Alpelisib + Bortezomib; first compound 4 µM)	relative viability (Vemurafenib + Navitoclax; first compound 0.03162 µM)	relative viability (Vemurafenib + Navitoclax; first compound 0.1 µM)	relative viability (Vemurafenib + Navitoclax; first compound 0.3162 µM)	relative viability (Vemurafenib + Navitoclax; first compound 1 µM)	relative viability (Alpelisib + Linsitinib; first compound 0.04 µM)	relative viability (Alpelisib + Linsitinib; first compound 0.1265 µM)	relative viability (Alpelisib + Linsitinib; first compound 0.4 µM)	relative viability (Alpelisib + Linsitinib; first compound 1.265 µM)	relative viability (Alpelisib + Linsitinib; first compound 4 µM)
HCC-78	0.6	0.77	0.472	0.787	0.518	0.427	0.474	0.686	0.337	0.366	0.818	0.608	1.13	0.656	0.448	0.477	0.601	0.42	0.345
NCI-H2126	0.771	0.814	0.728	0.563	0.529	1.06	1.06	1.03	0.974	0.81	0.808	0.778	0.825	0.83	0.682	0.716	0.66	0.698	0.63
HCC-827	0.151	0.173	0.205	0.185	0.176	1.1	0.904	1.28	1.02	0.942	0.967		1	1.02	0.942	0.979	1.04	0.925	0.924
NCI-H1703	1.33	1.1	0.889	0.736	0.365	0.348	0.208	0.231	0.223	0.234	1.19	1.24	0.863	0.933	0.899	0.631	0.661	0.438	0.354
PC-14	0.3	0.306	0.293	0.255	0.179	0.801	0.882	1.16	0.773	0.747	0.915		0.977	0.937	0.91	0.894	0.98	0.856	0.816
NCI-H1355	1.13	0.957	0.873	0.561	0.363	1.15	1.23	1.29	1.09	0.961	0.895	0.96	0.99	0.976	0.762	0.837	0.828	0.774	0.722
LXF-289	0.99	0.885	0.926	0.9	0.74	1	1.03	1.07	0.902	1.04	0.853	0.883	0.951	1.03	0.935	0.952	1.05	0.952	0.996
LOU-NH91	0.727	0.702	0.626	0.598	0.482	0.478	0.457	0.51	0.537	0.474	0.698	0.369		0.759	0.989	0.828	0.782	0.735	0.653
NCI-H2405	1.03	0.996	0.798	0.852	0.539	0.997	0.835	0.927	0.83	0.696	0.836	0.812		0.864	1.07	0.935	1.02	0.781	0.847
NCI-H322M	0.578	0.651	0.543	0.57	0.559	1.23	1.06	1.1	1.1	0.857	1.09		1.44	1.1	0.914	0.953	0.868	0.836	0.75
NCI-H23	1.07	1.13	1.06	0.618	0.291	0.941	0.941	0.773	0.559	0.766	0.894	0.9	0.888	0.796	0.527	0.576	0.672	0.524	0.513
HCC-15	0.872	0.849	0.819	0.763	0.529	1.03	0.948	1.04	0.898	0.858	0.679	0.71	0.736	0.73	0.892	0.873	0.878	0.863	0.767
NCI-H1437	0.807	0.756	0.807	0.69	0.312	0.504	0.515	0.497	0.49	0.508	1.01	1.06	1.05	1.09	1.06	1.02	1.05	0.827	0.844
EBC-1	0.187	0.217	0.223	0.199	0.203	0.574	0.559	0.584	0.428	0.423	0.409	0.408	0.453	0.461	0.81	0.822	1.02	0.825	0.793
A-427	1.04	1.16	0.927	0.768	0.661	0.889	0.843	0.978	0.849	0.893	0.969	0.887	0.977	0.94	1.11	1.14	1.22	1.01	1.09
NCI-H1975	0.897	0.864	0.958	0.688	0.401	0.419	0.318	0.355	0.238	0.189	0.94	1.11	0.952	1.03	0.96	0.915	0.91	0.67	0.548
